Results from patent US20140187784A1, “RADIOACTIVE QUINOLINONE DERIVATIVE AND PHARMACEUTICAL DRUG COMPRISING THE SAME” (Nihon Medi-Physics Co., Ltd., priority 2012, published 2014).
Read-outs that look alike come from different tables or passages of the source.

How the values were obtained:
CYP11B2 [1] = target: T1, CYP11B2 (Homo sapiens, UniProt P19099); conditions: reported by Stefanie Hahner et al., J Clin Endocrinol Metab 2008; cited from earlier work
T1 sequence (P19099 25-503): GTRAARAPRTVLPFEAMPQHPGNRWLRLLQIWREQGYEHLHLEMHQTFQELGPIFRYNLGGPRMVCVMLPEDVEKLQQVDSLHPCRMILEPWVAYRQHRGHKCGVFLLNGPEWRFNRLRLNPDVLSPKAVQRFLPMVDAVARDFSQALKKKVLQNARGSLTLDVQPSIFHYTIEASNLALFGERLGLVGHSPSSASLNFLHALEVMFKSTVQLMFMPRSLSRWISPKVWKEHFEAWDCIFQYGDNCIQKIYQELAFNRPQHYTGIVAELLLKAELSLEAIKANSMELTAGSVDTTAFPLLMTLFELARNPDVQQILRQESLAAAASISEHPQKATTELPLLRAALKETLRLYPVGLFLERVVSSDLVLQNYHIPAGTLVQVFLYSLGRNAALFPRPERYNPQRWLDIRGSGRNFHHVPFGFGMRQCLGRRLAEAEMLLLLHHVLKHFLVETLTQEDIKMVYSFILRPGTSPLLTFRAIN

human CYP11B1 = target: T2, human CYP11B1 (Homo sapiens, UniProt P15538); assay: Inhibition of cortisol production in V79-B1 cells expressing human CYP11B1 (ELISA); format: cell-based; conditions: 11-deoxycortisol 100 nmol/L, 1 hour, unlabeled form, read-out: IC50 against cortisol production
T2 construct: expressed in transfected cells; host or cells: Chinese hamster lung-derived fibroblast V79 cells (V79-B1)
T2 sequence (P15538 25-503): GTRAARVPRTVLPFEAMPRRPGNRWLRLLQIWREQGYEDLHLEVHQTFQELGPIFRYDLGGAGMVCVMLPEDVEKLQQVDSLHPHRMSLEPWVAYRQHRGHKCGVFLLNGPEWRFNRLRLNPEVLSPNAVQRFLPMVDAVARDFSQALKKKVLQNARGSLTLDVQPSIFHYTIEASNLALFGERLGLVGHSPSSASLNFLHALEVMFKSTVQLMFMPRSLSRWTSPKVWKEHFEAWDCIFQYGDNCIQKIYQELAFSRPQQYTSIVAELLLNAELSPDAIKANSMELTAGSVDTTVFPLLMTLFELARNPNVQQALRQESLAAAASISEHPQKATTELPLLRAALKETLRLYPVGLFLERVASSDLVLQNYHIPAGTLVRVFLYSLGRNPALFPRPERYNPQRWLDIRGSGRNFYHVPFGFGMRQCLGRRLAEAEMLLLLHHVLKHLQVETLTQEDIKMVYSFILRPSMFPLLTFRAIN
Method: (§1) Chinese hamster lung-derived fibroblast V79 cells (obtained from European Collection of Cell Cultures (ECACC) via DS Pharma Biomedical Co., Ltd.) were allowed to express human CYP11B2 and human CYP11B1 to prepare V79-B2 and V79-B1, respectively. V79-B2 or V79-B1 was inoculated to a microplate and cultured overnight. Then, corticosterone and 11-deoxycortisol were added at final concentrations of 100 nmol/L into the culture supernatants of V79-B2 and V79-B1, respectively. At the same time, iodometomidate (IMTO) or the unlabeled form of PAY15, PAY21, PAY27, or PAY54 synthesized in Example 2, 5, 8, or 12 was added at a final concentration of 10^−4 to 10^3 nmol/L into the culture supernatants. One hour later, the culture supernatant of V79-B1 was recovered, and the concentration of cortisol, which is a metabolite of CYP11B1, was measured by enzyme-linked immunosorbent assay (ELISA). Four hours later, the culture supernatant of V79-B2 was recovered, and the concentration of aldosterone, which is a metabolite of CYP11B2, was measured by ELISA. […] IC50 against cortisol production/IC50 against aldosterone production was calculated and used as a selectivity factor for CYP11B2.

CYP11B2 [2] = target: T1, CYP11B2; assay: Inhibition of aldosterone production in V79-B2 cells expressing human CYP11B2 (ELISA); format: cell-based; set-up: expressed in transfected cells; host or cells: Chinese hamster lung-derived fibroblast V79 cells (V79-B2); conditions: for Selectivity factor: IC50 against cortisol production/IC50 against aldosterone production, selectivity factor for CYP11B2; for IC50: V79-B2 cells, corticosterone 100 nmol/L, 4 hours, unlabeled form, read-out: IC50 against aldosterone production; for selectivity factor compared with IMTO: selectivity factor for CYP11B2, Table 6
Method: as §1

| SMILES | Selectivity factor (CYP11B2 [1]) | IC50 (human CYP11B1) | Selectivity factor (CYP11B2 [2]) | IC50 (CYP11B2 [2]) | selectivity factor compared with IMTO (CYP11B2 [2]) |
| --- | --- | --- | --- | --- | --- |
| C[C@H](c1ccccc1)n1cncc1C(=O)OCCF [FETO, fluoroetomidate] | 0.145 |  |  |  |  |
| O=C1CCc2cc(-c3cncc(I)c3)cc3c2N1CCC3 [PAY15, 9-(5-iodopyridin-3-yl)-1,2,6,7-tetrahydro-5H-pyrido[3,2,1-ij]quinolin-3-one] |  | 0.141 µM | 223.95 | 0.00063 µM | higher than that of IMTO |
| O=C1CCc2cc(-c3cncc(I)c3)cc3c2N1CC3 [PAY21, 8-(5-iodopyridin-3-yl)-1,2,5,6-tetrahydro-4H-pyrrolo[3,2,1-ij]quinolin-4-one] |  | 0.0211 µM | 26.09 | 0.00081 µM | higher than that of IMTO |
